# Data reported in article PMC4601051, “Discovery of Indoline-2-carboxamide Derivatives as a New Class of Brain-Penetrant Inhibitors of Trypanosoma brucei” (Journal of Medicinal Chemistry, 2015).
# pEC50: −log10 of the molar value. Values joined by “and” are separate entries in the source; they are usually repeats but may differ in a detail not shown here. Equal values may be shown once. Read-outs that look alike come from different tables or passages of the source.
# What was measured:
# [1] = system: bloodstream form T. brucei brucei; test: T. b. brucei whole cell parasite (trypanosome growth) assay; type: cell-based, Trypanosoma brucei brucei; details: for pEC50: Trypanosoma brucei, mean of two or more determinations, 69 h + 4 h resazurin, read-out: T. b. brucei EC50
# Description: This was conducted as previously described.[27] Cell culture plates were stamped with 1 μL of an appropriate stock concentration of test compound, followed by addition of 200 μL of trypanosome culture (HMI9-T, 10% FCS) to each well at a density of 2000 cells per well (except column 12 receiving media only). […] Potency was carried out using 10-point dose–response curves.
# [2] = Microsomal intrinsic clearance (Clint), mouse; type: in vitro ADME; details: mouse liver microsomes, 0.5 μM compound
# Description: (§1) Each test compound (0.5 μM) was incubated with pooled female CDI mouse liver microsomes, pooled male Sprague–Dawley rat microsomes, or pooled mixed gender human liver microsomes (Tebu-Bio, UK; 0.5 mg/mL 50 mM potassium phosphate buffer, pH 7.4) and the reaction started with addition of excess NADPH (8 mg/mL, 50 mM potassium phosphate buffer, pH 7.4). Immediately, at time zero, then at 3, 6, 9, 15, and 30 min, an aliquot (50 μL) of the incubation mixture was removed and mixed with acetonitrile (100 μL) to stop the reaction. Internal standard was added to all samples, and the samples were centrifuged at 1825g for 10 min to sediment precipitated protein. The plates were then sealed prior to UPLC/MS/MS analysis using a Quattro Premier XE (Waters Corporation, USA).
# (§2) XLfit (IDBS, UK) was used to calculate the exponential decay and consequently the rate constant (k) from the ratio of peak area of test compound to internal standard at each time point.
# [3] = Plasma protein binding by equilibrium dialysis, mouse; type: in vitro ADME; details: read-out: plasma protein binding, Fu (fraction unbound)
# Description: (§3) The software package StarDrop by Optibrium was used to calculate physicochemical parameters including log P, molecular weight, and polar surface area (PSA). The aqueous kinetic solubility of the compounds was measured using laser nephelometry as previously described.[40] The plasma protein binding of the compounds was determined by the equilibrium dialysis method.[12]
# [4] = In vivo mouse pharmacokinetics; details: for Cmax / Tmax / half-life / AUC(0-t) at 8 h / AUC(0-t): female, mouse, in vivo, 10 mg/kg, NMRI mice; for AUC(0-t) at 8 h: read-out: AUC0–8; for AUC(0-t): read-out: AUC0–8 (converted)
# Description: Each compound was dosed as a bolus solution intraperitoneally at 10 mg free base/kg (dose volume, 10 mL/kg; dose vehicles used, 10% DMSO; 40% PEG400; 50% Milli-Q water or 5% DMSO; 40% PEG400; 55% saline) to female HRN (1 only) or NMRI mice (n = 3) or dosed orally by gavage as a solution at 10 mg free base/kg (dose volume, 10 mL/kg; dose vehicle, 10% DMSO; 40% PEG400; 50% Milli-Q water) to female NMRI mice (n = 3). Female NMRI mice were chosen, as these represent the sex and strain used for the stage 1 and stage 2 HAT efficacy models. Blood samples were taken from each mouse at 5 (IP only), 15, and 30 min, 1, 2, 4, 6, and 8 h post dose, mixed with two volumes of distilled water, and stored frozen until UPLC/MS/MS analysis. Pharmacokinetic parameters were derived from noncompartmental analysis of the blood concentration time curve using PK solutions software v 2.0 (Summit Research Services, USA).
# [5] = Mouse brain penetration (brain:blood ratio); details: in vivo, dosed intravenously at 0.5 or 1 mg/kg, levels measured after 5 min, female NMRI mice, read-out: B:B (brain to blood ratio)
# Description: Each compound was dosed as a bolus solution intravenously at 0.5 or 1 mg free base/kg (dose volume, 5 mL/kg; dose vehicle, 10% DMSO; 40% PEG400; 50% Milli-Q water) to female NMRI mice (n = 6). At 5 and 30 min following intravenous bolus injection of test compound, mice (n = 3/time point) were placed under terminal anesthesia with isofluorane. A blood sample was taken by cardiac puncture and mixed with two volumes of distilled water, the mice decapitated, and the brain removed. Diluted blood and brains were stored frozen until preparation and analysis by UPLC/MS/MS. For each mouse at each time point, the concentration in brain (ng/g) was divided by the concentration in blood (ng/mL) to give a brain:blood ratio. The mean value obtained was quoted.
# [6] = system: panel of receptors, including dopamine, serotonin, histamine, and muscarinic receptors; test: NIMH Psychoactive Drug Screening Program (PDSP) receptor panel; type: binding; details: significant inhibition is considered > 50%
# From the text: However, the observed toxicity prevents further progression of the compounds. To try and identify a possible driver for toxicity, that may then offer an opportunity to design out this unwanted effect, the key compounds were screened against a panel of receptors at the NIMH Psychoactive Drug Screening Program (PDSP).[36],[37] No significant activity against a large panel of receptors, including dopamine, serotonin, histamine, and muscarinic receptors (see Supporting Information) was observed.
# S2: Details of receptors screened at the NIMH Psychoactive Drug Screening Program […]
# receptors screened. Significant inhibition is considered > 50%. In cases where negative inhibition (-) is seen, this represents a stimulation of binding. The receptors screened were 5- […]
# HT7, Alpha1A, Alpha1B, Alpha1D, Alpha2A, Alpha2B, Alpha2C, Beta1, Beta2, Beta3, BZP rat Brain site, D1, D2, D3, D4, D5, DAT, DOR, GABBA, H1, H2, H3, KOR, M1, M2, M3, M4, M5, MOR, NET, PBR, SERT, Sigma1 and Sigma2
# in vitro = details: human, MRC-5 fibroblasts
# Description: Proliferation assays using bloodstream form T. brucei brucei and human MRC-5 fibroblasts were conducted using a modification of the cell viability assay as previously reported.[27],[39]
# MRC-5 cells (2000 cells per well) were seeded in 200 μL of DMEM, 10% FCS, and allowed to adhere overnight. One microliter of test compound was added to each well on the day of assay initiation.
# The final DMSO level was 0.5% in all cases.
# [7] = Microsomal intrinsic clearance (Clint), rat; type: in vitro ADME; details: rat liver microsomes, 0.5 μM compound
# Description: as §1, §2
# [8] = Microsomal intrinsic clearance (Clint), human; type: in vitro ADME; details: human liver microsomes, 0.5 μM compound
# Description: as §1, §2
# [9] = Aqueous kinetic solubility by laser nephelometry; type: physicochemical; details: aqueous medium, Table 7
# Description: as §3
# [10] = Brain tissue binding by equilibrium dialysis; type: in vitro ADME; details: Sprague-Dawley, brain homogenate; rat (male SD rat); read-out: brain tissue binding (rat), Fu
# Description: In brief, a 96-well equilibrium dialysis apparatus was used to determine the free fraction in the brain for the test compound (HT Dialysis LLC, Gales Ferry, CT). Membranes (12–14 kDa A cutoff) were conditioned in deionized water for 60 min, followed by conditioning in 80:20 deionized water:ethanol for 20 min and then rinsed in artificial cerebrospinal fluid (CSF) before use. Mouse brain was removed from the freezer and allowed to thaw on the day of experiment. […] Diluted brain homogenate was spiked with the test compound (10 ug/g), and 150 μL aliquots (n = 6 replicate determinations) loaded into the 96-well equilibrium dialysis plate. Dialysis vs artificial CSF (150 μL) was carried out for 5 h in a temperature controlled incubator at ca. 37 °C (Stuart scientific Ltd., UK) using an orbital microplate shaker at 125 rpm (Stuart scientific Ltd., UK). […] All samples were analyzed by means of UPLC/MS/MS on a Quattro Premier XE mass spectrometer (Waters Corporation, USA). The unbound fraction was determined as the ratio of the peak area in artificial CSF to that in brain, with correction for dilution factor according to eq 1.[42] […] 1 where D = dilution factor in brain homogenate and Fu,apparent is the measured free fraction of diluted brain homogenate.
SMILES,pEC50 [1],mouse microsomal intrinsic clearance [2],fraction unbound [3],Cmax ([4]; IP),Tmax ([4]; IP) [min],half-life ([4]; IP) [min],AUC(0-t) at 8 h ([4]; IP) [µM·h],AUC(0-t) ([4]; IP) [ng·h/mL],Cmax ([4]; PO),Tmax ([4]; PO) [min],half-life ([4]; PO) [min],AUC(0-t) at 8 h ([4]; PO) [µM·h],AUC(0-t) ([4]; PO) [ng·h/mL],Kp at 5 min [5],EC50 at 69 h (in vitro) [nM],other results
"CNC(=O)C1Cc2ccccc2N1C(=O)COc1ccc(F)cc1 (stereo not shown) [Compound 35, 1-(2-(4-fluorophenoxy)acetyl)-N-methylindoline-2-carboxamide]",7.70,1.2 mL min^–1 g^–1 and 1.2/ND mL min^–1 g^–1,0.42,910 ng/mL and 2.8 µM,15,66,5.6,1830,180 ng/mL and 550 nM,15,42,0.8,250,1.5,> 50000,inhibition against receptors screened [6]: did not show significant inhibitor
"CNC(=O)C1Cc2cc(F)ccc2N1C(=O)COc1ccc(F)cc1 (stereo not shown) [Compound 55, 5-fluoro-1-(2-(4-fluorophenoxy)acetyl)-N-methylindoline-2-carboxamide]",7.10,1.3 mL min^–1 g^–1,0.33,2900 ng/mL and 8.4 µM,60,72,34,11800,1500 ng/mL and 4.3 µM,30,120,10,3500,1.4,> 50000,"Hill slope ([1]; T. brucei EC50 curve): 4.4; microsomal intrinsic clearance, rat [7]: 2.1 mL min^–1 g^–1; microsomal intrinsic clearance, human [8]: 0.5 mL min^–1 g^–1 and < 0.5 mL min^–1 g^–1; solubility [9]: > 100 µg/mL; fraction unbound at 5 h, 10 ug/g [10]: 0.29; higher AUC compared to 1 ([4]; IP, female NMRI mice): 1.5–6.5 fold"
